Tests used:
[1] = Metabolic stability in rat Hepatocyte assessed as intrinsic clearance at 0.5 uM incubated for 60 mins by LC-MS/MS analysis; assay type: ADME, tissue-based; details: hepatocytes, 1 h
[2] = Lipophilicity, logD of compound at pH 7.4; assay type: physicochemical; details: buffer
[3] = Oral bioavailability in Wistar Han rat at 3 mg/kg measured upto 24 hrs by LC-MS/MS analysis; assay type: ADME, organism-based; details: in vivo
[4] = Metabolic stability in human Hepatocyte assessed as intrinsic clearance at 0.5 uM incubated for 120 mins by LC-MS/MS analysis; assay type: ADME, tissue-based; details: hepatocytes, 2 h
[5] = Clearance in Wistar Han rat at 1 mg/kg, iv measured upto 7 hrs by LC-MS/MS analysis; assay type: ADME, organism-based; details: in vivo
[6] = Volume of distribution at steady state in Wistar Han rat at 1 mg/kg, iv measured upto 7 hrs by LC-MS/MS analysis; assay type: ADME, organism-based; details: in vivo, read-out: Vdss
[7] = Unbound clearance in Wistar Han rat at 1 mg/kg, iv measured upto 7 hrs by LC-MS/MS analysis; assay type: ADME, organism-based; details: in vivo
[8] = Half life in Wistar Han rat at 1 mg/kg, iv measured upto 7 hrs by LC-MS/MS analysis; assay type: ADME, organism-based; details: in vivo
[9] = Metabolic stability in dog Hepatocyte assessed as intrinsic clearance at 0.5 uM incubated for 60 mins by LC-MS/MS analysis; assay type: ADME, tissue-based, Canis lupus familiaris; details: hepatocytes, 1 h
[10] = LBF in Wistar Han rat at 1 mg/kg, iv measured upto 7 hrs by LC-MS/MS analysis; assay type: ADME, organism-based; details: in vivo
[11] = Volume of distribution at steady state in Beagle dog at 0.5 mg/kg, iv measured upto 24 hrs by LC-MS/MS analysis; assay type: ADME, organism-based, Canis lupus familiaris; details: in vivo, read-out: Vdss
[12] = Clearance in Beagle dog at 0.5 mg/kg, iv measured upto 24 hrs by LC-MS/MS analysis; assay type: ADME, organism-based, Canis lupus familiaris; details: in vivo
[13] = Oral bioavailability in Beagle dog at 0.5 mg/kg measured upto 24 hrs by LC-MS/MS analysis; assay type: ADME, organism-based, Canis lupus familiaris; details: in vivo
[14] = Unbound clearance in Beagle dog at 0.5 mg/kg, iv measured upto 24 hrs by LC-MS/MS analysis; assay type: ADME, organism-based, Canis lupus familiaris; details: in vivo
[15] = LBF in Beagle dog at 0.5 mg/kg, iv measured upto 24 hrs by LC-MS/MS analysis; assay type: ADME, organism-based, Canis lupus familiaris; details: in vivo
[16] = Half life in Beagle dog at 0.5 mg/kg, iv measured upto 24 hrs by LC-MS/MS analysis; assay type: ADME, organism-based, Canis lupus familiaris; details: in vivo

Row | CLH [1] [mL/min/g] | logD [2] | SMILES | other results
1 | 3 | 3.3 | CNC(=O)c1cc(C(=O)NC)c2c(c1)[C@H](c1ccccc1)[C@@H](CF)O2 | –
2 | 1.1 | 2.9 | CNC(=O)c1cc(C(=O)NCCC[C@H]2OC[C@H](N)CO2)cc2c1O[C@H](CF)[C@H]2c1ccccc1 | –
3 | 3.2 | 3.9 | CNC(=O)c1cc(C(=O)NC2CC2)cc2c1O[C@H](CF)[C@H]2c1ccccc1 | –
4 | – | 2.9 | CNC(=O)c1cc(C(N)=O)cc2c1O[C@H](CF)[C@H]2c1ccccc1 | –
5 | – | 4.7 | CNC(=O)c1cc(C(=O)N[C@H]2C[C@@H]2C)cc2c1OC[C@@]2(C)c1ccccc1 | –
6 | 14.8 | 3.6 | CNC(=O)c1cc(C(=O)N[C@H]2[C@@H]3COC[C@@H]32)cc2c1OC[C@H]2c1ccc(F)cc1 | –
7 | – | 3.4 | CNC(=O)c1cc(C(=O)NC)c2c(c1)[C@](C)(c1ccccc1)CO2 | –
8 | 1.2 | 3.7 | CNC(=O)c1cc(C(=O)N[C@H]2[C@@H]3COC[C@@H]32)cc2c1OC[C@@]2(C)c1ccccc1 | bioavailability [3]: 54%; CLH [4]: < 0.5 mL/min/g; clearance [5]: 61 mL/min/kg; Vd [6]: 1.6 L/kg; CL free [7]: 274 mL/min/kg; half-life [8]: 18 min; CLH [9]: < 0.7 mL/min/g; LBF [10]: 77%
9 | 2.7 | 3.3 | CNC(=O)c1cc(C(=O)N[C@H]2C[C@@H]2C)cc2c1OC[C@@]2(CO)c1ccccc1 | bioavailability [3]: 38%; CLH [4]: < 0.5 mL/min/g; clearance [5]: 60 mL/min/kg; Vd [6]: 1.2 L/kg; CL free [7]: 340 mL/min/kg; half-life [8]: 18 min; CLH [9]: 1 mL/min/g; LBF [10]: 60%
10 | 2 | 3.6 | CNC(=O)c1cc(C(=O)NC2CC2)cc2c1OC[C@H]2c1ccccc1 | bioavailability [3]: 47%; CLH [4]: < 0.5 mL/min/g; clearance [5]: 34 mL/min/kg; Vd [6]: 0.6 L/kg; CL free [7]: 723 mL/min/kg; half-life [8]: 18 min; CLH [9]: < 0.7 mL/min/g; LBF [10]: 43%
11 | 6.4 | 3.7 | CNC(=O)c1cc(C(=O)N[C@H]2[C@@H]3C[C@H](O)C[C@@H]32)cc2c1OC[C@@]2(C)c1ccccc1 | –
12 | – | 3.3 | CNC(=O)c1cc(C(=O)N[C@H]2CC[C@H](O)CC2)cc2c1OC[C@@]2(C)c1ccccc1 | –
13 | – | 2.1 | CNC(=O)c1cc(C(=O)N[C@H]2[C@@H]3COC[C@@H]32)cc2c1OC[C@H]2C1CCOCC1 | –
14 | 3.3 | 2.9 | CNC(=O)c1cc(C(=O)N[C@H]2[C@@H]3C[C@@H](O)C[C@@H]32)cc2c1OC[C@H]2c1ccccc1 | –
15 | 20.1 | 3.5 | CNC(=O)c1cc(C(=O)Nc2cnn(C)c2)cc2c1OC[C@H]2c1ccccc1 | –
16 | – | 3.2 | CNC(=O)c1cc(C(=O)NC)c2c(c1)[C@H](c1ccccc1)CO2 | –
17 | – | 2.6 | CNC(=O)c1cc(C(=O)NCCC[C@H]2OC[C@H](N)CO2)cc2c1OC[C@H]2c1ccccc1 | –
18 | – | 3.2 | CNC(=O)c1cc(C(=O)NCCc2cnn(C)c2)cc2c1OC[C@H]2c1ccccc1 | –
19 | 30.9 | 4 | CNC(=O)c1cc(C(=O)N[C@H]2[C@@H]3COC[C@@H]32)cc2c1OC[C@H]2c1ccccc1C | –
20 | 6.1 | 3.8 | CNC(=O)c1cc(C(=O)NC2CC2)cc2c1OC[C@H]2c1ccc(F)cc1 | –

Row | CLH [1] [mL/min/g] | logD [2] | SMILES | other results
21 | – | 2.7 | CNC(=O)c1cc(C(N)=O)cc2c1OC[C@H]2c1ccccc1 | –
22 | 16.3 | 3.2 | CNC(=O)c1cc(C(=O)NCCc2cnn(C)c2)cc2c1OC[C@H]2c1cccc2[nH]ccc12 | –
23 | – | 4.5 | CNC(=O)c1cc(C(=O)N[C@@H]2C[C@H]2C)cc2c1O[C@H](CF)[C@H]2c1ccccc1 | –
24 | 8.6 | 3.3 | CNC(=O)c1cc(C(=O)N[C@H]2[C@@H]3COC[C@@H]32)cc2c1OC[C@H]2c1ccccc1 | –
25 | 6.8 | 3.4 | CCC(=O)N1C[C@@H]2[C@H](C1)[C@H]2NC(=O)c1cc(C(=O)NC)c2c(c1)[C@H](c1ccccc1)CO2 | –
26 | 1 | 3.3 | CNC(=O)c1cc(C(=O)N[C@H]2[C@@H]3C[C@@H](O)C[C@@H]32)cc2c1OC[C@@]2(C)c1ccccc1 | Vd [11]: 0.9 L/kg; bioavailability [3]: 32%; CLH [4]: < 0.5 mL/min/g; clearance [5]: 55 mL/min/kg; clearance [12]: 5 mL/min/kg; bioavailability [13]: 64%; Vd [6]: 2.3 L/kg; CL free [7]: 260 mL/min/kg; half-life [8]: 42 min; CLH [9]: < 0.7 mL/min/g; CL free [14]: 24 mL/min/kg; LBF [15]: 8%; LBF [10]: 69%; half-life [16]: 174 min
27 | 4.6 | 3.5 | CNC(=O)c1cc(C(=O)NC2CC2)cc2c1OC[C@H]2c1cccc2[nH]ccc12 | –
28 | 10 | 3.7 | CNC(=O)c1cc(C(=O)NC2CC2)cc2c1OC[C@H]2c1cccc(F)c1 | –
29 | 6.7 | 4 | CNC(=O)c1cc(C(=O)NC2CC2)cc2c1OC[C@@]2(C)c1ccccc1 | –
30 | 3.6 | 3.1 | CNC(=O)c1cc(C(=O)N[C@H]2[C@@H]3COC[C@@H]32)cc2c1OC[C@H]2c1cccc2[nH]ccc12 | –
31 | 1.4 | 2.4 | CNC(=O)c1cc(C(=O)N[C@H]2[C@@H]3COC[C@@H]32)cc2c1OC[C@@]2(CO)c1ccccc1 | –
32 | – | 4.5 | CNC(=O)c1cc(C(=O)N[C@H]2C[C@@H]2C)cc2c1OC[C@H]2c1ccccc1 | –
33 | – | 4.2 | CC[C@@]1(c2ccccc2)COc2c(C(=O)NC)cc(C(=O)N[C@H]3[C@@H]4COC[C@@H]43)cc21 | –
34 | – | 3.8 | CNC(=O)c1cc(C(=O)NC2CC2)cc2c1OC[C@H]2c1cccc(OC)c1 (racemic) | –
35 | – | 1.6 | CNC(=O)c1cc(C(=O)N[C@H]2[C@@H]3COC[C@@H]32)cc2c1OC[C@H]2c1ccccn1 (racemic) | –
36 | – | 1.4 | CNC(=O)c1cc(C(=O)N[C@H]2[C@@H]3COC[C@@H]32)cc2c1OC[C@H]2c1cccnc1 (racemic) | –
37 | – | 1.3 | CNC(=O)c1cc(C(=O)N[C@H]2[C@@H]3COC[C@@H]32)cc2c1OC[C@H]2c1ccncc1 (racemic) | –
38 | – | 3.2 | CNC(=O)c1cc(C(=O)N[C@H]2[C@@H]3COC[C@@H]32)cc2c1OC[C@H]2c1cccc(OC)c1 (racemic) | –
39 | 1.8 | 3.6 | CNC(=O)c1cc(C(=O)N[C@H]2[C@@H]3COC[C@@H]32)cc2c1O[C@H](CF)[C@H]2c1ccccc1 [GSK973] | –

Row | SMILES | CLH [1] [mL/min/g] | logD [2] | other results
40 | CNC(=O)c1cc(C(=O)NC2CC2)cn(Cc2ccccc2)c1=O [GSK620] | 1 | 3.1 | –

Reference: ChEMBL document CHEMBL4834466 (J Med Chem, 2021)
